Source: article PMC8868331, “Hydroxamic Acid as a Potent Metal-Binding Group for Inhibiting Tyrosinase” (Antioxidants, 2022)
Read-outs that look alike come from different tables or passages of the source. Each block holds one compound with its values, some of them ahead of it.

Legend:
[1] = target: mushroom tyrosinase from Agaricus bisporus (Agaricus bisporus, UniProt C7FF04); assay: Enzyme-activity assay with mushroom tyrosinase, L-DOPA substrate, dopachrome absorbance at 475 nm; type: biochemical
tyrosinase [2] = target: tyrosinase (Agaricus bisporus, UniProt C7FF04); assay: Enzyme-inhibitory kinetics (Michaelis-Menten fitting with inhibition models); type: biochemical, mushroom; details: for Kinetics model (mode of inhibition): model chosen by F-test on reduced χ2
Procedure: Enzyme-inhibitory kinetics—Upon varying the substrate and inhibitor concentrations, the rates of product generation were measured. Simultaneous nonlinear fitting of all the profiles in an inhibitor was performed by minimizing the ꭓ^2-value, the sum of the squared differences in theoretical and experimental values, in the Michaelis–Menten equations assuming competitive, uncompetitive, noncompetitive, and mixed models. […] Reduced ꭓ^2-values, ꭓ^2-values divided by the difference in the numbers of input data and fitting parameters, were compared between the models based on the F-test to identify the most appropriate model.
The inhibitory kinetic experiments provide information for understanding the inhibition by small molecules. The rates of product generation were measured for a series of paired substrate and inhibitor concentrations. Subsequent nonlinear fitting using the Michaelis−Menten equations extended with inhibitory models and constants produced the inhibition mode and the binding constant.
Figure 4F lists the parameters for inhibition. […] However, one should be careful not to overinterpret the simulated modes and Ki values. The modes were chosen using the F-test, comparing reduced χ^2-values from each model.

[3] = system: arachidonate 5-lipoxygenase; parameters: method as in PMID 3820229; details: cited from earlier work
mandelate racemase = system: mandelate racemase; parameters: method as in PMID 17055725; details: cited from earlier work
carbonic anhydrase = system: carbonic anhydrase; parameters: method as in PMID 22836518; details: cited from earlier work
mushroom tyrosinase = mushroom tyrosinase (Agaricus bisporus, UniProt C7FF04); assay: Differential scanning fluorimetry (DSF) with SYPRO Orange; type: binding; details: 500 μM inhibitor; for Tm: mean ± SD of three experiments, DMSO control 49.16
Procedure: Differential scanning fluorimetry—Differential scanning fluorimetry (DSF) was used to characterize the direct binding of inhibitors to tyrosinase. In the absence and presence of 500 μM inhibitor, SYPRO® Orange was added to the enzyme solution. […] Time- and temperature-dependent signals were observed using the RT-PCR CFX96 system from BioRad (Hercules, CA, USA). The following equation was nonlinearly minimized to determine the mid-point melting temperature (Tm). I(T)=LL+UL−LL/[1+exp(Tm−T/a)] where UL and LL indicate the top and baseline of the curves, respectively, and a indicates the steepness of the slope.
We used differential scanning fluorimetry (DSF) to verify whether active small molecules identified by biochemical assays bound to tyrosinase directly. DSF was used to evaluate the fluorescence profiles of the dye SYPRO® Orange in a mixture with the protein upon elevating the temperature. The alteration in the unfolding process in the presence of a direct binder can shift the DSF pattern.

[4] = target: T1, mammalian tyrosinase in B16F10 cell lysates (Mus musculus, UniProt P11344); assay: Cell-lysate-based tyrosinase activity assay; type: biochemical, murine; details: 50 μM, relative to untreated control
T1 construct: The cell extracts having tyrosinase activity were prepared; host or cells: B16F10 murine melanoma cells, stimulated with 3-isobutyl-1-methylxanthine, lysate
T1 sequence (P11344 19-533): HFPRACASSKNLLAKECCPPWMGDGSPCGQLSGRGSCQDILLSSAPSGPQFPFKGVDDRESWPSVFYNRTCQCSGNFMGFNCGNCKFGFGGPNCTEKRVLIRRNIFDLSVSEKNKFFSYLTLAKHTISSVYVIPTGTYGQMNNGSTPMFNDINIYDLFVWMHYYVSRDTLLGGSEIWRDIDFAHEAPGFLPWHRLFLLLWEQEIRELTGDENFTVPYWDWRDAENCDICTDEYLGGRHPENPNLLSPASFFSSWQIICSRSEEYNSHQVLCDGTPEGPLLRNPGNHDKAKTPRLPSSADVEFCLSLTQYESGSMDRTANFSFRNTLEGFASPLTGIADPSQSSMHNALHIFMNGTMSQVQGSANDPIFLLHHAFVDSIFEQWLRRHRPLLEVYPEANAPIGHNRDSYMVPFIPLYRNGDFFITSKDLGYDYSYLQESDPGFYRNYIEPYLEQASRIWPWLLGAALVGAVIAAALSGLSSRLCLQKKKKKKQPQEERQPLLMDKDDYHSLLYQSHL
Procedure: Cell-lysate-based activity assays with inhibitors—Cell-lysate-based assays were performed using B16F10 murine melanoma cells obtained from the Korean Cell Line Bank (Seoul, Korea). The B16F10 cells were grown to a density of 1 × 10^5 cells in Dulbecco’s modified Eagle’s medium supplemented with 10% fetal bovine serum and 1% penicillin−streptomycin at 37 °C under 5% CO2. The cells were incubated for 48 h after the addition of 100 μM 3-isobutyl-1-methylxanthine. The cell extracts having tyrosinase activity were prepared.
The melanin quantification assay and the cell-lysate-based activity assay were used for confirming the inhibition of mammalian tyrosinases. Unfortunately, quantifying melanin content using hydroxamate-containing molecules is not feasible because anticancer agents affect cell viability. Therefore, we evaluated tyrosinase activities using B16F10 cell lysates in a small-molecule-concentration-dependent manner.

[5] = system: indoleamine 2,3-dioxygenase; parameters: method as in PMID 26717206; details: cited from earlier work
tyrosinase [6] = details: cited from earlier work; for IC50: ChEMBL-registered tyrosinase inhibitor
[7] = shift toward lower temperature against DMSO
[8] = mushroom tyrosinase, concentration-dependent profile (Figure 2)

Sequence of mushroom tyrosinase (C7FF04 1-392 limits assumed): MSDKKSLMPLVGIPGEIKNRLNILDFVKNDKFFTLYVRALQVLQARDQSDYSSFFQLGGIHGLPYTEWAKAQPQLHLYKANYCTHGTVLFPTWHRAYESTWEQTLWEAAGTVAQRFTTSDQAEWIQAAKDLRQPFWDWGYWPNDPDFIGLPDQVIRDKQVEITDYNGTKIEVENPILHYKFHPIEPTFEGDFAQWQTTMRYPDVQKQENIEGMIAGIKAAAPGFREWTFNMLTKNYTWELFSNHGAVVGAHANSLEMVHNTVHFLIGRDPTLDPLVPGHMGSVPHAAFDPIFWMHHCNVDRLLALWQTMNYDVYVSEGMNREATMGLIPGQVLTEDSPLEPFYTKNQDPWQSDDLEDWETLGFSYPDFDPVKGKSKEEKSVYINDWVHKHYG
Sequence of tyrosinase (Agaricus bisporus, UniProt C7FF04) (C7FF04 1-392): as the sequence (C7FF04 1-392 limits assumed) above
Sequence of mushroom tyrosinase from Agaricus bisporus (C7FF04 1-392): as the sequence (C7FF04 1-392 limits assumed) above

Structure (SMILES): CC(=O)NO [Acetohydroxamic acid]
Ki ([1]; inhibitory constant converted from IC50 (Cheng-Prusoff), 5 nM enzyme, 500 μM L-DOPA, ± is SD from Monte-Carlo simulation, read-out: Ki): 38 ± 8 µM
Kinetics model (mode of inhibition) (tyrosinase [2]): noncompetitive

Ki [1]: 0.007 ± 0.001 µM
Tm (mushroom tyrosinase): 47.15 ± 0.07 °C
ΔTm (mushroom tyrosinase; shift toward lower temperature): 2.01 degrees
ΔTm (mushroom tyrosinase; [7]): 2.01 °
Ki (tyrosinase [2]): 128 nM
Kinetics model (mode of inhibition) (tyrosinase [2]): noncompetitive
Decrease of tyrosinase activity [4]: approximately 97%
Structure (SMILES): O=C(NO)c1ccccc1 [Benzohydroxamic acid]
Inhibition of arachidonate 5-lipoxygenase (in words) [3]: μM range
Inhibition of mandelate racemase (in words) (mandelate racemase): μM range
Inhibition of carbonic anhydrase (in words) (carbonic anhydrase): μM range
Inhibition of indoleamine 2,3-dioxygenase (in words) [5]: μM range

Ki ([1]; read-out: Ki): 32 ± 5 µM
Structure (SMILES): CCCC(=O)NO [Butyrylhydroxamic acid]

Structure (SMILES): Oc1ccc(-c2nc3ccccc3s2)c(O)c1 [CHEMBL1408767]
IC50 (tyrosinase [6]; ref 61 (supplement ref 7)): 10 nM

Structure (SMILES): CCN(CC)C(=O)/C=C/c1ccc(O)cc1O [CHEMBL4463984]
IC50 (tyrosinase [6]; ref 62 (supplement ref 8)): 11 nM

Structure (SMILES): NCC(=O)NO [Glycine hydroxamate]
Inhibition of tyrosinase (in words) (tyrosinase [6]): comparable inhibitory activity to arbutin

Structure (SMILES): CC(=O)NO [N-Hydroxyacetamide]
Ki ([1]; inhibitory constant converted from IC50 (Cheng-Prusoff), 5 nM enzyme, 500 μM L-DOPA, read-out: Ki): > 1000 µM
Inhibition of tyrosinase (in words) [1, 8]: scarcely inhibited

Ki values as worded in the text (words or range with mixed units) ([1]; mushroom tyrosinase): submicromolar range
Ki ([1]; read-out: Ki): 0.04 ± 0.005 µM
Tm (mushroom tyrosinase): 46.72 ± 0.06 °C
ΔTm (mushroom tyrosinase; shift toward lower temperature): 2.44 degrees
ΔTm (mushroom tyrosinase; [7]): 2.44 °
Kinetics model (mode of inhibition) (tyrosinase [2]): competitive
Ki (tyrosinase [2]; simultaneous nonlinear fit, read-out: Ki (simulated inhibitory constant from kinetics fit)): 290 nM
Structure (SMILES): Cc1[nH]c2ccccc2c1CCNCc1ccc(/C=C/C(=O)NO)cc1 [Panobinostat]

Structure (SMILES): C/C=C1\NC(=O)[C@H]2CSSCC/C=C/[C@H](CC(=O)N[C@H](C(C)C)C(=O)N2)OC(=O)[C@H](C(C)C)NC1=O [Romidepsin]
Inhibition of tyrosinase (in words) [1]: inhibited very weakly
Ki [1]: > 500 µM

Ki [1]: 0.18 ± 0.021 µM
Tm (mushroom tyrosinase): 47.31 ± 0.07 °C
ΔTm (mushroom tyrosinase; shift toward lower temperature): 1.85 degrees
ΔTm (mushroom tyrosinase; [7]): 1.85 °
Kinetics model (mode of inhibition) (tyrosinase [2]): competitive
Structure (SMILES): O=C(CCCCCN1C(=O)c2cccc3cccc(c23)C1=O)NO [Scriptaid]

Structure (SMILES): O=C(CCCCCCC(=O)NO)NO [Suberohydroxamic acid]
Ki ([1]; read-out: Ki): 1 ± 0.2 µM

Structure (SMILES): CC(/C=C/C(=O)NO)=C\[C@@H](C)C(=O)c1ccc(N(C)C)cc1 [Trichostatin A]
Ki [1]: 1 ± 0.1 µM
Tm (mushroom tyrosinase): 46.55 ± 0.07 °C
Ki (tyrosinase [2]; Ki for apo state (mixed model), first value, apo state): 4500 nM
Ki (tyrosinase [2]; Ki for holo state (mixed model), second value, holo state): 37000 nM
Kinetics model (mode of inhibition) (tyrosinase [2]): mixed

Structure (SMILES): O=c1cccccc1O [Tropolone]
Ki ([1]; read-out: Ki): 0.043 ± 0.003 µM

Inhibition of tyrosinase (in words) [1, 8]: inhibited very weakly
Ki ([1]; read-out: Ki): > 500 µM
Structure (SMILES): CCCC(CCC)C(=O)O [Valproic acid]
